Measured values: ChEMBL document CHEMBL1122620, “Inhibition of renin by substrate analogue inhibitors containing the olefinic amino acid 5(S)-amino-7-methyl-3(E)-octenoic acid” (J Med Chem, 1984)
Where a SMILES comes first, the peptide text is derived from it.

Experiments:
[1] = biological target: T1, Renin (Homo sapiens, UniProt P00797); test: Compound was evaluated for competitive Renin inhibitory activity against human amniotic renin; Competitive
T1 sequence (P00797 whole entry): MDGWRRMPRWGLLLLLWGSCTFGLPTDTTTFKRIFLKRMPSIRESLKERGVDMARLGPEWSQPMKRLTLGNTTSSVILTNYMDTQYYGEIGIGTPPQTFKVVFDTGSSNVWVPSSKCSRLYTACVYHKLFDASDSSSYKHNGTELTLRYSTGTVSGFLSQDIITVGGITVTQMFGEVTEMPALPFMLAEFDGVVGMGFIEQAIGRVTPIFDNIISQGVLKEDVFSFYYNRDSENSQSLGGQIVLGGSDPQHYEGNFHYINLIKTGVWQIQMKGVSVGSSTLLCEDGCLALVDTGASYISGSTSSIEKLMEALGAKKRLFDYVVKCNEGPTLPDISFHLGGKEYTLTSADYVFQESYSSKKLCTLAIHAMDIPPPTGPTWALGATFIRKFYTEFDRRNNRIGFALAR

[2] = biological target: Renin (Sus scrofa); test: Compound was evaluated for Non-competitive Renin inhibitory activity against hog kidney renin; Non competitive

SMILES	Ki [1] [µM]	Ki [2] [µM]
COC(=O)[C@H](Cc1ccccc1)NC(=O)[C@@H](NC(=O)CNC(=O)[C@@H](N)CC(C)C)C(C)C (H-LGVF-OMe)	1000	
COC(=O)[C@H](Cc1ccccc1)NC(=O)[C@@H](NC(=O)[C@H](CC(C)C)NC(=O)[C@@H](N)CC(C)C)C(C)C (H-LLVF-OMe)		500
